The record followed here is patent EP4057003A1, “SELECTIVE SULFATE ANION DETECTION USING GUANYLATED FLUOROPHORES” (Universidad de Castilla la Mancha, priority 2021, dated 2022).

Data set [1] in a line: pH titration of aqueous solution, UV-Vis absorption and steady-state fluorescence (pH dependence, pKa). In kind it is physicochemical. As for the experimental part:
For experiments in water, stock solutions (1 mM) of guanylated fluorophore (A) in ethanol were used. All aqueous solutions were prepared by diluting the stock solution in Milli-Q water to the desired concentration and filtered with 0.22 µm filters before use. For the pH titration experiments, aqueous solutions of guanylated fluorophore (A) (10 µM) were titrated by the successive addition of small volumes (in the order of microliters) of HCI and NaOH solutions of different concentrations (0.01-10 M) to an initial volume of 25 mL to minimize changes in the sample volume. UV-Vis absorption, SSF spectra were recorded.
UV-Vis absorption spectra of guanylated fluorophore (A) were recorded at room temperature using a Cary 100 (Varian) spectrophotometer using a slit width of 0.4 nm and a scan rate of 600 nm/min.
(§1) Steady-state fluorescence (SSF) spectra of the samples were recorded employing an FLS920 (Edinburgh Instruments) spectrofluorometer equipped with a MCP-PMT (microchannel plate-photomultiplier tube) detector (R3809 model) and a TCSPC (time-correlated single photon counting) data acquisition card (TCC900 model). A TLC 50 temperature-controlled cuvette holder (Quantum Northwest) was employed for the measurements (temperature was controlled at 296 K, which corresponds to 22.85 °C). A Xe lamp of 450 W was used as the light source for SSF spectra. […]

Data set [2] can be described thus: Anion selectivity, fluorescence decrease on addition of anion in water (Figure 6a). The following applies: 100 µM anion. The procedure:
(§2) For ion interaction experiments, an aqueous solution of guanylated fluorophore (A) (10 µM) was titrated with different salt solutions (CaCl2, KCI, NaCl, NaCH3COO, KSCN, Na2CO3, Na2SO3, SDS, Na2HPO4, Na3PO4, AgNO3, MgSO4, CuSO4, and NiSO4). Different concentrations of ions were tested from 0 to 100 µM and steady-state fluorescence (SSF) spectra were acquired. All measurements were performed using 10 mm quartz cuvette (Hellma Analytics).
The selectivity of guanylated fluorophore (A) was tested with different anions (Figure 6a). […] It is important to emphasize that the selectivity of guanylated fluorophore (A) was tested in water, where the presence of cations like Ca^2+, Ni^2+, K^+, Na^+ or Mg^2+ or anions like HPO4^2- NO^3- and Cl^- normally presented in this media will not affect the final recognition values. To evaluate the selectivity to sulfate anions, additional experiments were conducted on water complex samples containing high concentrations of such ions as interfering.

The nature of data set [3]: Ion recognition: fluorescence change on addition of salts in water. The procedure: […] Different concentrations of ions were tested from 0 to 100 µM and steady-state fluorescence (SSF) spectra were acquired. All measurements were performed using 10 mm quartz cuvette (Hellma Analytics).
as §1
Although the fluorescence intensity of guanylated fluorophore (A) was the same for most of the ions, the presence of sulfate anions (added to a concentration of 100 µM) caused -2-fold fluorescence quenching in guanylated fluorophore (A) (at a concentration of 10 µM) (Figure 5a). […] More importantly, for the same titration a gradual fluorescence decrease without any shift in the emission spectra was observed (see Figure 5c).
Figure 6b collects the fluorescence changes (%) of guanylated fluorophore (A) when successive quantities of 100 µM of anions are added over 5µM solution of A in water.

Data set [4] in a line: Association constant from fluorescence titration data, Scatchard plot method. In kind it is binding. The procedure: as §2
Chem. Commun. (Cambridge, United Kingdom) 2003, 2 (6), 792-793. https://doi.org/10.1039/b300098b)by the following equation (i): [SO4^(2−)] = (1)/(nKa)(1)/([F]0^(n−1))(1−α)/(α^n) [formula] where; α is defined as the ratio between concentration of free fluorophore (e.g. [F] and initial [F]0 fluorophore concentration, e.g. for the guanylated fluorophore (A), and can be determined from the fluorescence difference at any titration stage; n is the stoichiometry to the studied complex Fn(SO4^2-)m.
The data of figure 5d of example 3 was fitted to equation (i) as shown in: • Figure 7a for the 1:1 complex of guanylated fluorophore (A) and sulfate anion (i.e., (A)(SO4^2-), complex A) • Figure 7b for the a 2:1 complex of guanylated fluorophore (A) and sulfate anion (i.e., (A)2(SO4^2-), complex B)

Turning to `CC(C)NC(=Nc1ccc2c(c1)Cc1ccccc1-2)NC(C)C` [guanylated fluorophore (A), 2-(9H-fluoren-2-yl)-1,3-diisopropylguanidine], the pKa (commonly the negative logarithm of the acid dissociation constant) in data set [1] (aqueous solution (Milli-Q water), water, from absorption spectra at different pH (A / AH^+ equilibrium)) is 11.1. In data set [1] (pH in the range of 5-12, λex 272 nm), the “intensity of the fluorescence and the wavelength of emission” value is given as “only mildly affected”. Moreover, the sensitivity result in data set [2] (HPO4^2-) is on record as “no sensitivity was found”; in data set [2] (PO4^3-) it was “no sensitivity was found”; in data set [2] (SO3^2-), “sensitivity was not observed”; in data set [2] (dodecyl sulfate (SDS)), “sensitivity was not observed”. Moreover, in data set [3] (successive additions of 100 µM of anions to 5 µM solution in water (Figure 6b)), the “fluorescence changes (%) / emission intensity” value is given as “exclusively decreases when sulfate anions are added”. For the same compound, the fluorescence quenching in data set [3] (sulfate anions 100 µM, fluorophore 10 µM, water) is recorded as -2 fold. Also, the Ka in data set [4] (1:1 complex (A)(SO4^2-), complex A) is recorded as 1.26x10^5; in data set [4] (2:1 complex (A)2(SO4^2-), complex B) it was 1.55x10^10.
